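Assay format: 96-well plates, 48-hour exposure. TGI is the concentration that stops growth completely.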
Key:
Assay in all cases: NCI tumour cell line growth inhibition, 48 h
RXF-631 renal = test system: RXF-631 renal
DMS 273 small cell lung = test system: DMS 273 small cell lung
SNB-78 CNS = test system: SNB-78 CNS
786-0 renal = test system: 786-0 renal
LXFL 529 NSCLC = test system: LXFL 529 NSCLC
SN12K1 renal = test system: SN12K1 renal
P388 leukemia = test system: P388 leukemia
P388/ADR leukemia = test system: P388/ADR leukemia
HOP-18 NSCLC = test system: HOP-18 NSCLC

| SMILES | TGI (RXF-631 renal) | TGI (DMS 273 small cell lung) | TGI (SNB-78 CNS) | TGI (786-0 renal) | further results |
| --- | --- | --- | --- | --- | --- |
| CC1CC(c2ccc([N+](=O)[O-])cc2)=Nc2ccccc2S1=O (stereo not given) | 52.6 µM | 42.7 µM | > 100 µM | – | – |
| O=c1ccc2nc3ccc(O)cc3oc-2c1 | – | – | – | > 79.6 µM | – |
| Cc1ccc(C(=O)C(C)N)cc1C (stereo not given) | > 100 µM | – | – | > 100 µM | TGI (LXFL 529 NSCLC): > 100 µM |
| NC(=O)N/N=C/c1ccccc1O | – | – | – | > 100 µM | – |
| COc1cc2c(cc1O)N=C[C@@H]1CCC(O)N1C2=O (mixture of isomers) | – | 19.6 µM | 46.3 µM | – | TGI (SN12K1 renal): 25 µM; TGI (P388 leukemia): 9.2 µM; TGI (P388/ADR leukemia): 5.15 µM; TGI (HOP-18 NSCLC): 3.39 µM |
| Nc1ccc2c(c1)S(=O)(=O)c1cc(N)ccc1-2 | – | – | – | > 100 µM | – |

— PubChem BioAssay (NCI)
